Entries after “also recorded” stand apart in the source; their conditions may differ.
Assays:
Type in all cases: in vivo, human
PD-1+ T cells = experiment: Multi-parametric flow cytometry of PD-1+ T cells in PBMC of HCC patients pre and post sorafenib treatment; conditions: pre vs post sorafenib
Method: (§1) FACS analysis was performed to measure peripheral blood Treg frequency using APC-H7 anti-CD3, V450 anti-CD4, PE anti-CD127, PE-Cy5 anti-CTLA-4 (BD Biosciences) and PE-Cy7 anti-PD-1, Alexa488 anti-Foxp3 (Biolegend). Detection of surface GARP levels was achieved by using mouse anti-human GARP (Enzo Life Sciences) followed by staining with PE F(ab′)2 goat anti-mouse IgG (Jackson ImmunoResearch Laboratories). Cells were incubated with normal mouse IgG for 10 min prior to surface and intracellular staining. Intracellular analysis for Foxp3 and CTLA-4 was performed after fixation and permeabilization of cells using intracellular staining kit (eBioscience) according to manufacturer's instructions. All samples were acquired on LSRII flow cytometer (BD Biosciences) and analyzed using Flowjo Model Fit (Tree Star).
(§2) Plasma levels of both pro-inflammatory and immunosuppressive cytokines were determined by ELISA.
This study was approved by institutional review board of Roswell Park Cancer Institute (RPCI), Buffalo, N.Y. and informed consent was obtained from all participants.
(§3) PBMCs were isolated immediately by Ficoll-Paque Plus density gradient centrifugation and cryopreserved. Plasma was isolated and stored at −80° C. and used for measurement of immunosuppressive and immunostimulatory cytokines as described previously. Frequency, phenotype and functionality of immune cells after blocking immune check points were analyzed by multi-parameter flow cytometry.

CD11b+CD33+ MDSC = experiment: Multi-parametric flow cytometry of MDSC in PBMC of HCC patients pre and post sorafenib treatment; conditions: pre vs post sorafenib
Method: MDSC in the peripheral blood were detected using FITC anti-CD11b (eBioscience), PE-Cy5 anti-CD33, APC anti-CD14, V450 anti-HLA-DR (BD Biosciences).
as §2
(§4) This study was approved by institutional review board of Roswell Park Cancer Institute (RPCI), Buffalo, N.Y. and informed consent was obtained from all participants. Heparinized peripheral blood samples were obtained from HCC patients before the initiation of sorafenib treatment and after four weeks or more of oral sorafenib treatment, through Data Bank and Biorepository at RPCI.
as §3

TGF-β1 = experiment: Plasma cytokine ELISA pre and post sorafenib treatment: TGF-β1; conditions: pre vs post sorafenib
Method: (§5) Plasma isolated during PBMC separation was assayed to quantify the level of IFN-γ, IL-10, and TGF-β1 using specific ELISA kits according to the manufacturer's instructions (eBioscience).
as §2, §4, §3

Foxp3+ Tregs = experiment: Multi-parametric flow cytometry of Tregs in PBMC of HCC patients pre and post sorafenib treatment; conditions: pre vs post sorafenib
Method: as §1, §2, §4, §3

HCC patients [1] = experiment: PD-1 status and survival of HCC patients treated with sorafenib (Example 2)
Text: The individual data points in the figures represent each patient.

IL-10 = experiment: Plasma cytokine ELISA pre and post sorafenib treatment: IL-10; conditions: pre vs post sorafenib
Method: as §5, §2, §4, §3

HCC patients [2] = experiment: Overall survival of HCC patients stratified by greater or smaller decrease in immune parameters after sorafenib treatment; conditions: log-rank P<0.30, FIG. 18E
IFN-γ = experiment: Plasma cytokine ELISA pre and post sorafenib treatment: IFN-γ; conditions: pre vs post sorafenib
Method: as §5, §2, §4, §3

IL-1β = experiment: Plasma cytokine ELISA pre and post sorafenib treatment: IL-1β; conditions: pre vs post sorafenib, P<0.11, FIG. 17A
Method: as §5, §2, §4, §3

HCC patients [3] = experiment: Overall survival of HCC patients stratified by greater or smaller decrease in immune parameters after sorafenib treatment
Method: FIGS. 15A-15D. […] Overall survival of patients was calculated based on the status of (FIG. 15A) absolute numbers of CD4^+PD-1^+ T cells (FIG. 15B) CD8^+PD-1^+ T cells (FIG. 15C) expression levels of PD-1 (MFI) on CD8^+ T cells (FIG. 15D) absolute numbers of CD4^+Foxp3^+ T cells.
FIGS. 18A-18R. […] Overall survival of patients was calculated based on the status of (FIG. 18A) frequency of CD4^+Foxp3^+ Tregs (FIG. 18B) frequency of GARP^+Foxp3^+ Tregs (FIG. 18C) expression levels of GARP (MFI) on Foxp3^+ Tregs (FIG. 18D) frequency of CTLA-4^+Foxp3^+ Tregs (FIG. 18E) absolute number of CD4^+Foxp3^+ Tregs (FIG. 18F) expression levels of CTLA-4 (MFI) on Foxp3^+ Tregs (FIG. 18G) frequency of CD11b^+CD33^+ MDSC (FIG. 18H) absolute number of CD11b^+CD33^+ MDSC (FIG. 18I) frequency of CD4^+PD-1^+ T cells (FIG. 18J) expression levels of PD-1 (MFI) on CD4^+ T cells (FIG. 18K) frequency of Foxp3^+PD-1^+ T cells (FIG. 18L) absolute number of Foxp3^+PD-1^+ T cells (FIG. 18M) expression levels of PD-1 (MFI) on Foxp3^+CD4^+ T cells (FIG. 18N) frequency of CD8^+PD-1^+ T cells (FIG. 18O) IL-10 (FIG. 18P) TGF-β1 (FIG. 18Q) IFN-γ (FIG. 18R) IL-1β.
as §2, §4

## CNC(=O)c1cc(Oc2ccc(NC(=O)Nc3ccc(Cl)c(C(F)(F)F)c3)cc2)ccn1 [sorafenib]
PD-1+ T cells; FIG. 14B
  95% CI of change in expression levels (MFI) of PD-1 on CD4+ T cells after sorafenib treatment: −56.51 to −12.09 MFI
PD-1+ T cells; P<0.02, FIG. 14B
  expression levels (MFI) of PD-1 on CD4+ T cells after sorafenib treatment: significantly decreased
PD-1+ T cells; P<0.04, FIG. 14C
  absolute number of CD4+Foxp3+PD-1+ T cells after sorafenib treatment: significantly decreased
PD-1+ T cells; P<0.15, FIG. 14E
  absolute number of CD8+PD-1+ T cells after sorafenib treatment: did not show any significant decrease
PD-1+ T cells; P<0.20, FIG. 14D
  frequency of CD8+PD-1+ T cells after sorafenib treatment: did not show any significant decrease
PD-1+ T cells; P<0.31, FIG. 14F
  level of expression of PD-1 on CD8+ T cells (MFI) after sorafenib treatment: did not show any significant decrease
PD-1+ T cells; n=19, P<0.01, FIG. 14A
  frequency of CD4+PD-1+ T cell after sorafenib treatment: significantly reduced
CD11b+CD33+ MDSC; P<0.61, FIG. 16E
  frequency of CD11b+CD33+ MDSC after sorafenib treatment: did not significantly impact; also recorded: did not have any significant influence
CD11b+CD33+ MDSC; P<0.92, FIG. 16F
  absolute number of CD11b+CD33+ MDSC after sorafenib treatment: did not significantly impact; also recorded: did not have any significant influence
TGF-β1; FIG. 17C
  95% CI of change in levels of TGF-β1 after sorafenib treatment: −151.50 to −48.55
TGF-β1; P<0.03, FIG. 17C
  plasma levels of TGF-β1 after sorafenib treatment: significant decrease
Foxp3+ Tregs; FIG. 16A
  95% CI of change in frequency of CD3+CD4+Foxp3+ Tregs after sorafenib treatment: −0.44 to −1.16
Foxp3+ Tregs; FIG. 16B
  95% CI of change in absolute numbers of CD3+CD4+Foxp3+ Tregs after sorafenib treatment: −9.48 to −3.55
Foxp3+ Tregs; FIG. 16C
  95% CI of change in frequency of Foxp3+CTLA-4+ Tregs after sorafenib treatment: −3.18 to −0.82
Foxp3+ Tregs; FIG. 16D
  95% CI of change in absolute number of Foxp3+CTLA-4+ Tregs after sorafenib treatment: −8.42 to −6.32
Foxp3+ Tregs; P<0.02, FIG. 16A
  frequency of CD3+CD4+Foxp3+ Tregs after sorafenib treatment: significant decrease
Foxp3+ Tregs; P<0.02, FIG. 16C
  frequency of Foxp3+CTLA-4+ Tregs after sorafenib treatment: Marked reduction
Foxp3+ Tregs; P<0.05, FIG. 16B
  absolute numbers of CD3+CD4+Foxp3+ Tregs after sorafenib treatment: significant decrease
Foxp3+ Tregs; P<0.05, FIG. 16D
  absolute number of Foxp3+CTLA-4+ Tregs after sorafenib treatment: Marked reduction
HCC patients [1]; group where PD-1 was decreased
  mean survival time: 688 days
HCC patients [1]; group which did not show a decrease in PD-1
  mean survival: 168 days
IL-10; FIG. 17B
  95% CI of change in levels of IL-10 after sorafenib treatment: −63.30 to −4.9
IL-10; P<0.03, FIG. 17B
  plasma levels of IL-10 after sorafenib treatment: significant decrease
HCC patients [2]
  overall survival, greater vs smaller decrease in absolute number of CTLA-4+ Tregs after sorafenib: no significant differences in the overall survival
IFN-γ; FIG. 17D
  95% CI of change in levels of IFN-γ after sorafenib treatment: −1.07 to 23.64
IFN-γ; P<0.04, FIG. 17D
  plasma levels of IFN-γ after sorafenib treatment: concomitant increase; also recorded: significantly increased
IL-1β
  plasma levels of IL-1β after sorafenib treatment: did not show any significant decrease
HCC patients [3]; AFT models, AFT β P<0.04
  overall survival, greater decrease in PD-1 expression levels on CD4+ T cells after sorafenib: better overall survival benefit
HCC patients [3]; AFT models, AFT β P<0.05
  overall survival, greater decrease in absolute number of MDSC after sorafenib: better prognosis; also recorded: significant correlation with overall survival
  overall survival, greater decrease in percentage of MDSC after sorafenib: better prognosis; also recorded: significant correlation with overall survival
HCC patients [3]; log-rank P<0.01, FIG. 15D
  overall survival vs absolute numbers of Foxp3+ Tregs post-sorafenib treatment: statistically significant improvement in overall survival; also recorded: significant correlation with overall survival
HCC patients [3]; log-rank P<0.04, FIG. 15A
  overall survival, greater vs smaller decrease in absolute number of PD-1+CD4+ T cells after sorafenib: significant interaction term; also recorded: significantly improved overall survival rate
HCC patients [3]; log-rank P<0.04, FIG. 15B
  overall survival, greater vs smaller decrease in absolute number of CD8+PD-1+ T cells after sorafenib: significant interaction term; also recorded: significant improvement in overall survival
HCC patients [3]; log-rank P<0.04, FIG. 15C
  overall survival, greater vs smaller decrease in PD-1 expression levels on CD8+ T cells after sorafenib: significant improvement in overall survival
HCC patients [3]; log-rank P<0.51, FIG. 18D
  overall survival, greater vs smaller decrease in frequency of CTLA-4+ Tregs after sorafenib: no significant differences in the overall survival
HCC patients [3]; log-rank P<0.61, FIG. 18P
  overall survival vs changes in levels of TGF-β1 after sorafenib: none of these cytokines showed any significant association; also recorded: non-significant interaction term
HCC patients [3]; log-rank P<0.62, FIG. 18Q
  overall survival vs changes in levels of IFN-γ after sorafenib: none of these cytokines showed any significant association; also recorded: non-significant interaction term
HCC patients [3]; log-rank P<0.73, FIG. 18O
  overall survival vs changes in levels of IL-10 after sorafenib: none of these cytokines showed any significant association; also recorded: non-significant interaction term
HCC patients [3]; log-rank P<0.92, FIG. 18R
  overall survival vs changes in levels of IL-1β after sorafenib: non-significant interaction term

From patent publication US10738119B2, “Combination therapy for hepatocellular carcinoma” (Health Research, Inc., priority 2014, dated 2020)
